# Measured values: patent publication US5026836A, “6-sulfenamide, 6-sulfinamide and 6-sulfonamide purines, purine nucleosides, purine nucleotides, pharmaceutical compositions, and processes of making” (priority 1988, dated 1991)
# “Also recorded” adds a separate entry of the source.
# How the values were obtained:
# B-16 melanoma = assay: Activity against B-16 melanoma; settings: in vivo
# Murine Glioma 261 = Murine Glioma 261 tumor weight in C57B1/6 mice; format: in vivo, mouse; settings: qd days 1-9; for Attained tumor wt (Mean ± 1SD): day 10; for T/C (%): active at or below 42%
# Procedure: Compound 19 was also tested against Murine Glioma 261. In this test activity is indicated at levels of T/C below 42%. As is shown in Table 19, Compound 19 is active at various doses against this tumor system.
# [1] = system: L1210/6MP, 6TG, 6TGR cells; assay: Life span of mice inoculated with L1210 resistant to 6MP, 6TG, 6TGR; format: in vivo, mouse; settings: for ILS: L1210/6MP,6TG; for activity against drug resistant cells (words): mouse, in vivo
structure (smiles),measurement,setting,value
"Nc1nc([S+](N)[O-])c2ncn([C@@H]3O[C@H](CO)[C@@H](O)[C@H]3O)c2n1 (mixture of isomers) [Compound 19, 2-amino-9-β-D-ribofuranosyl-9H-purine-6-sulfinamide]",activity against B-16 melanoma,B-16 melanoma,No activity
same,Attained tumor wt (Mean ± 1SD),Murine Glioma 261; ip 22 mg/kg/inj,80 ± 130 mg
same,Attained tumor wt (Mean ± 1SD),Murine Glioma 261; ip 37 mg/kg/inj,119 ± 105 mg
same,Attained tumor wt (Mean ± 1SD),Murine Glioma 261; ip 62 mg/kg/inj,137 ± 124 mg
same,Attained tumor wt (Mean ± 1SD),Murine Glioma 261; ip 104 mg/kg/inj,5 ± 5 mg
same,T/C (%),Murine Glioma 261; ip 22 mg/kg/inj,22.9%
same,T/C (%),Murine Glioma 261; ip 37 mg/kg/inj,34.1%
same,T/C (%),Murine Glioma 261; ip 62 mg/kg/inj,39.3%
same,T/C (%),Murine Glioma 261; ip 104 mg/kg/inj,1.4%
same,"Activity against I.P. L1210 cells resistant to 6MP, 6TG, 6TGR, T/C","[1]; 37 mg/kg, bid days 1,3,5,7",165.6%
same,"Activity against I.P. L1210 cells resistant to 6MP, 6TG, 6TGR, T/C","[1]; 62 mg/kg, bid day 1",133.3%
same,"Activity against I.P. L1210 cells resistant to 6MP, 6TG, 6TGR, T/C","[1]; 62 mg/kg, bid days 1,4,7",175.0%
same,"Activity against I.P. L1210 cells resistant to 6MP, 6TG, 6TGR, T/C","[1]; 62 mg/kg, qd day 1",127.3%
same,"Activity against I.P. L1210 cells resistant to 6MP, 6TG, 6TGR, T/C","[1]; 62 mg/kg, tid day 1",133.3%
same,"Activity against I.P. L1210 cells resistant to 6MP, 6TG, 6TGR, T/C","[1]; 104 mg/kg, bid day 1",150.0%
same,"Activity against I.P. L1210 cells resistant to 6MP, 6TG, 6TGR, T/C","[1]; 104 mg/kg, qd day 1",122.2%
same,"Activity against I.P. L1210 cells resistant to 6MP, 6TG, 6TGR, T/C","[1]; 173 mg/kg, qd day 1",144.5%
same,ILS,"[1]; ip 37 mg/kg/inj, bid days 1,3,5,7",66%
same,ILS,"[1]; ip 62 mg/kg/inj, bid days 1,4,7",75%
same,ILS,"[1]; oral 37 mg/kg/inj, bid days 1,3,5,7",0%
same,ILS,"[1]; oral 62 mg/kg/inj, bid days 1,4,7",0%
same,activity against drug resistant cells (words),[1],exhibited activity against the drug resistant cells; also recorded: active
same,activity against drug resistant cells (words),[1]; listed as 2-amino-9-β-D-ribofuranosyl-9H-purine-6-sulfinamide,demonstrated activity against cells which have become resistant to other chemotherapeutic agents
